Reference: patent US20120322060A1, “DIAGNOSIS AND MONITORING TREATMENT OF PSYCHIATRIC DISEASES WITH SPADIN AND RELATED METHODS” (CENTRE NATIONAL DE LE RECHERCHE SCIENTIFIQUE - CNRS -, priority 2011, published 2012)
Where “and” joins values, the source holds several entries; their conditions need not be identical. Equal values may be shown once. No end group written: not given here.

What was measured:
DRN 5-HT neurons [1] = assay: Extracellular unitary recordings of DRN 5-HT neurons in mice; type: in vivo, mouse; conditions: 10^-5 M in 100 μl bolus i.p.
Description: As previously described, single-barreled glass micropipettes (recording electrodes) were filled with a 2 M NaCl solution saturated with Fast Green FCF, resulting in an impedance of 2-5 MΩ. Mice were anaesthetized with chloral hydrate (400 mg/kg, i.p., using a 2% solution), and placed in a stereotaxic frame equipped with the Stoelting “just for mouse” adaptor. Electrodes were positioned 0.5-1 mm posterior to the interaural line on the midline, and were then lowered into the DRN, usually attained at a depth of 2.5 mm from the brain surface. 5-HT neurons were then encountered over a maximal distance of 1 mm. They were identified using the following criteria: a slow (0.5-2.5 Hz) and regular firing rate and long-duration (0.8-1.2 ms) action potentials, with a positive-negative spike. Spikes were computed by using the Spike 2 software, so that the firing rate was calculated as the mean number of events occurring within a 10 s period. For each neuron, the discharge was monitored during 60 seconds. Each mouse received either spadin (10^−5 M in a 100 μl bolus) or its vehicle (saline). Starting 30 min after the injection, 3 to 4 successive descents were performed along the DRN, for a total of 4-8 cells recorded per animal. Recordings were performed for a maximal duration of 4 hours post-injection.

DRN 5-HT neurons [2] = assay: Rat extracellular unitary recordings of DRN 5-HT neurons; type: in vivo; conditions: rats, 10^-5 M in 500 μl bolus i.p.
Description: Single-barreled glass micropipettes (recording electrodes) were filled with a 2 M NaCl solution saturated with Fast Green FCF, resulting in an impedance of 2-5 MΩ. Rats were anaesthetized with chloral hydrate (400 mg/kg, i.p., using a 8% solution), and placed in a stereotaxic frame. A burr hole was drilled on the midline 1 mm anterior to lambda. DRN 5-HT neurons were encountered over a distance of 1 mm starting immediately below the ventral border of the Sylvius aqueduct. They were identified using the following criteria: a slow (0.5-2.5 Hz) and regular firing rate and long-duration (0.8-1.2 ms) action potentials, with a positive-negative spike. Spikes were computed by using the Spike 2 software, so that the firing rate was calculated as the mean number of events occurring within a 10 s period. For each neuron, the discharge was monitored during 60 seconds. Each rat received either spadin (10^−5M in a 500 μl bolus) or its vehicle. Starting 30 min after the injection, 2 to 3 successive descents were performed along the DRN, for a total of 8-12 cells recorded per animal. Recordings were performed for a maximal duration of 4 hours post-injection.

mice [3] = assay: Conditioned Suppression of Motility test (CMST); type: in vivo, mouse
Description: Mice were placed in a rectangular cage (20×20×27 cm) with a metallic grid floor, located in a sound-proof room illuminated by a 75 W bulb. There were 12 squares drawn on the floor for counting animal displacements. On the first day, the mouse was left in the test cage for 6 min and received 30 electric footshocks of 1.8 mA during 200 ms (one shock every 12 s.). On the second day, the mouse was again placed in the same cage without receiving electric footshocks (conditioned suppression group). Motility changes were observed by counting the number of squares crossed plus the number of climbing in 6 min. Each control group was treated exactly by the same way, except for the absence of the electric foot-shock. In this test, the mice learned to associate a conditioned stimulus (CS: test chamber) with an unconditioned stimulus (US: footshocks). After the pairing of CS and US, a robust associative memory of the CS-US was formed such that the CS alone could elicit a fear response (behavioral immobility or freezing).

mice [4] = assay: Learned Helplessness (LH) test; type: in vivo, mouse; conditions: acute i.v., 10^-6 M, shocked mice
Description: LH training was carried out in 2-way shuttle plexiglas boxes (Imetronic). Each box was divided in 2 equal compartments (19.5×10×13 cm) separated by a wall equipped with, a gate (4.7×4.7 cm) that was closed during LH training but opened automatically during shuttle escape testing. LH was induced in shocked group by administering 360 inescapable, 2-s duration footshocks (0.3 mA intensity), administered once every 10 s over a 1-hour session. Scrambled shocks were delivered by a source shock to a grid floor, which was made of stainless steel bars 2 mm in diameter, spaced 4 mm apart. […] 24 hours later, escape testing was performed in the same box, but the animals had the possibility to avoid shocks by moving through the gate to the other side of the box. During testing sessions, all mice were given 30 shuttle escape trials with 30 s intervals between the start of each trial. While on the first five trials, the gate opened at the same time as the shock (0.3 mA), for the 25 remaining trials, the gate opened 2 s after shock onset. Each trial (with a maximal 24 s) duration was terminated when the mouse went into the adjacent compartment. Escape latencies were averaged over 5 trials. Overall escape latencies were computed by averaging escape latencies over 30 trials.

[5] = test system: dentate gyrus of the mouse hippocampus; assay: Hippocampal neurogenesis (BrdU / DCX labeling); type: in vivo
Description: Twenty-four hours after the injection of BrdU (120 mg per kg of body weight in a 300 μl bolus), mice were euthanized and transcardially perfused with 4% cold paraformaldehyde. Serial sections of the brains were cut (40 μm) throughout the entire hippocampus on a vibratome (Leica). Every sixth section throughout the hippocampus was processed for BrdU or doublecortin (DCX) immunohistochemistry, as previously described. For each immunodetection, slides were first incubated overnight at 4° C. with a mouse monoclonal anti-BrdU antibody (1:200; Becton-Dickinson) or a goat anti-DCX (1:400, Santa Cruz Laboratories). For chromogenic immunodetection, sections were then incubated for 1 hour in biotin-conjugated species-specific secondary antibodies (1:100; Vector Laboratories) followed by a peroxidase-avidin complex solution according to the manufacturer's protocol. The peroxidase activity of immune complexes was visualized with DAB staining using the VectaStain ABC kit (Vector Laboratories). For fluorescent double-labeling, performed to determine the cell phenotype, sections were incubated overnight at 4° C. with anti-sheep BrdU (1:200, Interchim), anti-goat DCX (1:200, Santa Cruz Laboratories), or an anti-GFAP (Glial Fibrillary acidic protein, marker for astrocytes, 1:250, Dako). […] All BrdU-labeled cells in the granular cell layer and subgranular zone (SGZ) were counted in each section (n=10 and 5 mice per group) at 400× and 1000× magnification under a light microscope (Olympus) by an experimenter blinded to the study code. The total number of BrdU-positive cells per section was multiplied by 6 to obtain the total number of cells per dentate gyrus. The counting of BrdU/DCX labeled cells was performed using a Laser Scanning Confocal Microscope (TCS SP, Leica) equipped with a DMIRBE inverted microscope.

## APLPRWSGPIGVSWGLR [spadin]
DRN 5-HT neurons [1]
  increase of DRN 5-HT neuron firing rate versus vehicle: 146%
  mean firing rate of DRN 5-HT neurons: 3.1±0.7 Hz
DRN 5-HT neurons [2]
  DRN 5-HT neuron firing rate: 2.66±0.36 Hz
  increase of DRN 5-HT neuron firing rate versus saline: 125%
Mice [3]; i.v., 10^-6 M
  reduction of conditioned suppression of motility: 84.4%
Mice [3]; injection in kcnk2-/- mice
  effect in CMST: did not induce any change
Mice [3]; shocked group, acute spadin
  motility (squares crossed plus climbings): 78±7 counts
Mice [4]
  reduced escape latencies after training versus saline: 25.4%
[5]; 4-day treatment
  BrdU-labelled cells expressing DCX: 85.2% and 85%
[5]; 4-day treatment, spadin i.p. 10^-5 M
  number of BrdU-positive cells in the SGZ versus saline: significantly increased by two-fold
[5]; 15 days
  number of BrdU-positive cells versus saline: maintained
